Values quoted from earlier work, collected in patent US11753409B2, “Crystalline salts of a B-RAF kinase inhibitor” (Xynomic Pharmaceuticals, Inc., priority 2017, dated 2023).

Columns and labels:
[1] = system: B-RAF-mutant melanomas and colorectal carcinomas; settings: cited from earlier work
wild-type cells = settings: at 1,000 nmol/L; cited from earlier work
[2] = system: human B-RAF-mutant melanoma cells; settings: cited from earlier work
[3] = treated mice; cited from earlier work
A375 melanoma = settings: particularly in combination with trametinib; cited from earlier work
[4] = rats, up to 60 mg/kg daily for 2 weeks; cited from earlier work

For `CCCS(=O)(=O)Nc1ccc(F)c(-n2cc(-c3cncnc3)c3nc(N(C)C4CCN(CC)CC4)ccc32)c1F` [BI 882370, N-(3-(5-((1-ethylpiperidin-4-yl)(methyl)amino)-3-(pyrimidin-5-yl)-1H-pyrrolo[3,2-b]pyridin-1-yl)-2,4-difluorophenyl)propane-1-sulfonamide], the “Efficacy compared with vemurafenib, dabrafenib, or trametinib” value ([1]; 25 mg/kg twice daily, oral) is given as “superior efficacy”, the “Efficacy in mouse models” value ([1]; solution administered orally) is given as “efficacious” and the “Effect on wild-type cells” value (wild-type cells) is given as “not affected”. The “Potency, inhibition of proliferation” value [2] was 1 to 10 nM, the “Potency relative to vemurafenib” value ([2]; higher potency than vemurafenib) was 100 times and the “Body weight loss or clinical signs of intolerability” value [3] was “did not show any body weight loss or clinical signs of intolerability”. The “Pathologic changes in several major organs, including skin” value [3] was “no pathologic changes were observed”, the “Activity in vemurafenib-resistant model” value (A375 melanoma) was “active” and the “Toxicity (clinical chemistry, hematology, pathology, toxicogenomics)” value [4] was “lacked toxicity”.
